Reference: US20230167088A1, “1-PYRAZINYLPYRAZOLYL-3-OXYALKYL ACIDS AND THEIR DERIVATIVES, AND THEIR USE FOR CONTROL OF UNDESIRED PLANT GROWTH” (BAYER AKTIENGESELLSCHAFT, priority 2020, published 2023)

Experiments:
[1] = tested on: ALOMY; experiment: Herbicidal post-emergence action 1a (greenhouse pots, visual rating); type: in vivo, Alopecurus myosuroides; details: rated visually about 3 weeks after treatment, 100% = plants have died, 0% = like control plants
Procedure, shortened: (§1)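 Weeds and crops sown in sandy loam in greenhouse pots were sprayed post-emergence at the one-leaf stage (2–3 weeks after sowing) with WP or EC formulations plus 0.5% additive at 600 l/ha water, 320 and/or 80 g/ha. About 3 weeks later damage was rated visually against untreated controls (0% = no effect, 100% = dead).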

[2] = tested on: AVEFA; experiment: as above; type: in vivo, Avena fatua; details: rated visually about 3 weeks after treatment, 100% = plants have died, 0% = like control plants
Procedure, shortened: as §1

[3] = tested on: ECHCG; experiment: as above; type: in vivo, Echinochloa crus-galli; details: rated visually about 3 weeks after treatment, 100% = plants have died, 0% = like control plants
Procedure, shortened: as §1

[4] = tested on: LOLRI; experiment: as above; type: in vivo, Lolium rigidum; details: rated visually about 3 weeks after treatment, 100% = plants have died, 0% = like control plants
Procedure, shortened: as §1

[5] = tested on: SETVI; experiment: as above; type: in vivo, Setaria viridis; details: rated visually about 3 weeks after treatment, 100% = plants have died, 0% = like control plants
Procedure, shortened: as §1

[6] = tested on: AMARE; experiment: as above; type: in vivo, Amaranthus retroflexus; details: visual rating about 3 weeks after treatment
Procedure, shortened: as §1

[7] = tested on: MATIN; experiment: as above; type: in vivo, Matricaria inodora; details: visual rating about 3 weeks after treatment
Procedure, shortened: as §1

[8] = tested on: PHBPU; experiment: as above; type: in vivo, Pharbitis purpurea; details: visual rating about 3 weeks after treatment
Procedure, shortened: as §1

[9] = tested on: POLCO; experiment: as above; type: in vivo, Polygonum convolvulus; details: visual rating about 3 weeks after treatment
Procedure, shortened: as §1

[10] = tested on: VERPE; experiment: as above; type: in vivo, Veronica persica; details: visual rating about 3 weeks after treatment
Procedure, shortened: as §1

[11] = tested on: ALOMY; experiment: Herbicidal pre-emergence action 2a (greenhouse pots, visual scoring); type: in vivo, Alopecurus myosuroides; details: dosage 320 g/ha, visual scoring after about 3 weeks
Procedure, shortened: (§2)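 Pre-emergence greenhouse pot test: WP or EC formulations sprayed onto covering soil over sown seeds at 600 l/ha water with 0.5% additive, at rates corresponding to 320 g/ha and/or 80 g/ha. Visual % activity versus untreated controls after about 3 weeks (100% = plants dead).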

[12] = tested on: AVEFA; experiment: as above; type: in vivo, Avena fatua; details: dosage 320 g/ha, visual scoring after about 3 weeks
Procedure, shortened: as §2

[13] = tested on: ECHCG; experiment: as above; type: in vivo, Echinochloa crus-galli; details: dosage 320 g/ha, visual scoring after about 3 weeks
Procedure, shortened: as §2

[14] = tested on: LOLRI; experiment: as above; type: in vivo, Lolium rigidum; details: dosage 320 g/ha, visual scoring after about 3 weeks vs untreated controls
Procedure, shortened: as §2

[15] = tested on: SETVI; experiment: as above; type: in vivo, Setaria viridis; details: dosage 320 g/ha, visual scoring after about 3 weeks vs untreated controls
Procedure, shortened: as §2

[16] = tested on: ABUTH; experiment: as above; type: in vivo, Abutilon theophrasti; details: dosage 320 g/ha, visual scoring after about 3 weeks vs untreated controls
Source text: [table] a) Seeds of monocotyledonous and dicotyledonous weed plants and crop plants are placed in plastic or organic plant pots and covered with soil. The compounds of the invention, formulated in the form of wettable powders (WP) or as emulsion concentrates (EC), are then applied onto the surface of the covering soil as aqueous suspension or emulsion with addition of 0.5% additive at a water application rate of 600 1/ha (converted). After the treatment, the pots are placed in a greenhouse and kept under good growth conditions for the trial plants. After about 3 weeks, the effect of the preparations is scored visually in comparison with untreated controls as percentages. For example, 100% activity=the plants have died, 0% activity=like control plants. Tables B1 to B15 below show the effects of selected compounds of the general formula (I) according to Tables 1 and 2 on various harmful plants and an application rate corresponding to 320 g/ha and/or 80 g/ha, which were obtained by the experimental procedure mentioned above.

[17] = tested on: AMARE; experiment: as above; type: in vivo, Amaranthus retroflexus; details: dosage 320 g/ha, visual scoring after about 3 weeks vs untreated controls
Procedure, shortened: as §2

[18] = tested on: MATIN; experiment: as above; type: in vivo, Matricaria inodora; details: dosage 320 g/ha, visual scoring after about 3 weeks vs untreated controls
Procedure, shortened: as §2

[19] = tested on: PHBPU; experiment: as above; type: in vivo, Pharbitis purpurea; details: dosage 320 g/ha, visual scoring after about 3 weeks vs untreated controls
Procedure, shortened: as §2

[20] = tested on: POLCO; experiment: as above; type: in vivo, Polygonum convolvulus; details: dosage 320 g/ha, visual scoring after about 3 weeks vs untreated controls
Procedure, shortened: as §2

[21] = tested on: VERPE; experiment: as above; type: in vivo, Veronica persica; details: dosage 320 g/ha, visual scoring after about 3 weeks vs untreated controls
Procedure, shortened: as §2

[22] = tested on: ABUTH; experiment: Herbicidal post-emergence action 1a (greenhouse pots, visual rating); type: in vivo, Abutilon theophrasti; details: visual rating about 3 weeks after treatment
Procedure, shortened: as §1

SMILES | Post-emergence action against ALOMY in % ([1]; Dosage 80 g/ha) [%] | Post-emergence action against ALOMY in % ([1]; Dosage 320 g/ha) [%] | Post-emergence action against AVEFA in % ([2]; Dosage 80 g/ha) [%] | Post-emergence action against AVEFA in % ([2]; Dosage 320 g/ha) [%] | Post-emergence action against ECHCG in % ([3]; Dosage 80 g/ha) [%] | Post-emergence action against ECHCG in % ([3]; Dosage 320 g/ha) [%] | Post-emergence action against LOLRI in % ([4]; Dosage 80 g/ha) [%] | Post-emergence action against LOLRI in % ([4]; Dosage 320 g/ha) [%] | Post-emergence action against SETVI in % ([5]; Dosage 80 g/ha) [%] | Post-emergence action against SETVI in % ([5]; Dosage 320 g/ha) [%] | Post-emergence action against AMARE in % ([6]; dosage 80 g/ha) [%] | Post-emergence action against AMARE in % ([6]; dosage 320 g/ha) [%] | Post-emergence action against MATIN in % ([7]; dosage 80 g/ha) [%] | Post-emergence action against MATIN in % ([7]; dosage 320 g/ha) [%] | Post-emergence action against PHBPU in % ([8]; dosage 80 g/ha) [%] | Post-emergence action against PHBPU in % ([8]; dosage 320 g/ha) [%] | Post-emergence action against POLCO in % ([9]; dosage 80 g/ha) [%] | Post-emergence action against POLCO in % ([9]; dosage 320 g/ha) [%] | Post-emergence action against VERPE in % ([10]; dosage 80 g/ha) [%] | Post-emergence action against VERPE in % ([10]; dosage 320 g/ha) [%] | also measured
CCOC(=O)[C@@H](C)Oc1nn(-c2cnccn2)c(-c2cncc(F)c2)c1Br [Example I-99] | 80 | 100 | 80 | 100 | 90 | 90 | 100 | 100 | 90 | 90 | 90 | 90 | 80 | 90 | 80 | 90 | 80 | 80 | 90 | 90 | Pre-emergence action against ALOMY in % [11]: 100%; Pre-emergence action against AVEFA in % [12]: 90%; Pre-emergence action against ECHCG in % [13]: 100%; Pre-emergence action against LOLRI in % [14]: 100%; Pre-emergence action against SETVI in % [15]: 100%; Pre-emergence action against ABUTH in % [16]: 90%; Pre-emergence action against AMARE in % [17]: 100%; Pre-emergence action against MATIN in % [18]: 100%; Pre-emergence action against PHBPU in % [19]: 90%; Pre-emergence action against POLCO in % [20]: 90%; Pre-emergence action against VERPE in % [21]: 100%
COC(=O)[C@@H](C)Oc1nn(-c2cnccn2)c(-c2cncc(F)c2)c1Cl [Example I-95] | 100 | 100 | 80 | 90 | 90 | 90 | 90 | 90 | 90 | 90 | 90 | 90 | 80 | 90 | 90 | 90 | 90 | 90 | 90 | 90 | Post-emergence action against ABUTH in % ([22]; dosage 80 g/ha): 90%; Post-emergence action against ABUTH in % ([22]; dosage 320 g/ha): 90%; Pre-emergence action against ALOMY in % [11]: 100%; Pre-emergence action against AVEFA in % [12]: 90%; Pre-emergence action against ECHCG in % [13]: 100%; Pre-emergence action against LOLRI in % [14]: 100%; Pre-emergence action against SETVI in % [15]: 100%; Pre-emergence action against ABUTH in % [16]: 90%; Pre-emergence action against AMARE in % [17]: 100%; Pre-emergence action against MATIN in % [18]: 100%; Pre-emergence action against PHBPU in % [19]: 90%; Pre-emergence action against POLCO in % [20]: 100%; Pre-emergence action against VERPE in % [21]: 100%
